Experimental data published in patent US12162840B2, “Herbicidal compositions” (SYNGENTA PARTICIPATIONS AG, priority 2018, dated 2024).

System: warm season plant species
Assay: B2 Post-emergence efficacy Test 2, warm season plant species
Assay type: in vivo
Details: 15 days after application, 0-100 scale, 0=no damage, 100=total kill; for Herbicidal activity, ABUTH: Abutilon theophrasti; for Herbicidal activity, AMARE: Amaranthus retroflexus; for Herbicidal activity, BIDPI: Bidens pilosa; for Herbicidal activity, BRAPL: Brachiaria plantaginea; for Herbicidal activity, DIGSA: Digitaria sanguinalis; for Herbicidal activity, ECHCG: Echinochloa crus galli; for Herbicidal activity, ELEIN: Eleisine indica; for Herbicidal activity, EPHHL: Euphorbia hetrophylla; for Herbicidal activity, GLXMA: Glycine max; for Herbicidal activity, IPOHE: Ipomoea hederacea; for Herbicidal activity, ORYSA: Orysa sativa; for Herbicidal activity, PANMI: Panicum miliaceum; for Herbicidal activity, SETFA: Setaria faberi; for Herbicidal activity, SIDSP: Sida spinosa; for Herbicidal activity, SORVU: Sorghum bicolour; for Herbicidal activity, XANST: Xanthium strumarium; for Herbicidal activity, ZEAMX: Zea mays
Method: Seeds of a variety of test species (see Table B1) were sown in standard soil in pots. After cultivation for 12 days (post-emergence) under controlled conditions in a glasshouse (at 24/18° C. or 20/16° C., at day/night; 16 hours light; 65% humidity), the plants were sprayed with an aqueous spray solution derived from the formulation of the technical active ingredient dissolved in IF50 (see Table B2 for composition) and adjuvant (Genapol XO80) was added to the spray solution at a rate of 0.2% v/v. [table] [table] After application, the test plants were grown in a glasshouse under controlled conditions (as above) and watered twice daily. Herbicidal activity was evaluated 15 days after application on a 0-100 scale. The results, where 0=no damage to test plant and 100=total kill of test plant are shown below in Tables 6 to 9.

Cc1nn(C)c(=O)c(-c2c(F)ccc(Cl)c2CCc2ccccc2C(F)(F)F)c1O [Compound 1.066]
Herbicidal activity, ABUTH (15 g/Ha): 20
Herbicidal activity, ABUTH (30 g/Ha): 50
Herbicidal activity, ABUTH (60 g/Ha): 50
Herbicidal activity, ABUTH (125 g/Ha): 90
Herbicidal activity, ABUTH (250 g/Ha): 90
Herbicidal activity, ABUTH (500 g/Ha): 100
Herbicidal activity, AMARE (15 g/Ha): 90
Herbicidal activity, AMARE (30 g/Ha): 90
Herbicidal activity, AMARE (60 g/Ha): 90
Herbicidal activity, AMARE (125 g/Ha): 100
Herbicidal activity, AMARE (250 g/Ha): 100
Herbicidal activity, AMARE (500 g/Ha): 100
Herbicidal activity, BIDPI (15 g/Ha): 50
Herbicidal activity, BIDPI (30 g/Ha): 60
Herbicidal activity, BIDPI (60 g/Ha): 70
Herbicidal activity, BIDPI (125 g/Ha): 80
Herbicidal activity, BIDPI (250 g/Ha): 90
Herbicidal activity, BIDPI (500 g/Ha): 90
Herbicidal activity, BRAPL (15 g/Ha): 0
Herbicidal activity, BRAPL (30 g/Ha): 60
Herbicidal activity, BRAPL (125 g/Ha): 80
Herbicidal activity, BRAPL (250 g/Ha): 70
Herbicidal activity, BRAPL (500 g/Ha): 100
Herbicidal activity, DIGSA (15 g/Ha): 0
Herbicidal activity, DIGSA (30 g/Ha): 20
Herbicidal activity, DIGSA (60 g/Ha): 20
Herbicidal activity, DIGSA (125 g/Ha): 40
Herbicidal activity, DIGSA (250 g/Ha): 70
Herbicidal activity, DIGSA (500 g/Ha): 70
Herbicidal activity, ECHCG (15 g/Ha): 20
Herbicidal activity, ECHCG (30 g/Ha): 80
Herbicidal activity, ECHCG (60 g/Ha): 90
Herbicidal activity, ECHCG (125 g/Ha): 90
Herbicidal activity, ECHCG (250 g/Ha): 90
Herbicidal activity, ECHCG (500 g/Ha): 90
Herbicidal activity, ELEIN (15 g/Ha): 0
Herbicidal activity, ELEIN (30 g/Ha): 20
Herbicidal activity, ELEIN (60 g/Ha): 70
Herbicidal activity, ELEIN (125 g/Ha): 70
Herbicidal activity, ELEIN (250 g/Ha): 70
Herbicidal activity, ELEIN (500 g/Ha): 80
Herbicidal activity, EPHHL (15 g/Ha): 60
Herbicidal activity, EPHHL (30 g/Ha): 70
Herbicidal activity, EPHHL (60 g/Ha): 80
Herbicidal activity, EPHHL (125 g/Ha): 90
Herbicidal activity, EPHHL (250 g/Ha): 100
Herbicidal activity, EPHHL (500 g/Ha): 100
Herbicidal activity, GLXMA (15 g/Ha): 20
Herbicidal activity, GLXMA (30 g/Ha): 40
Herbicidal activity, GLXMA (60 g/Ha): 70
Herbicidal activity, GLXMA (125 g/Ha): 70
Herbicidal activity, GLXMA (250 g/Ha): 90
Herbicidal activity, GLXMA (500 g/Ha): 90
Herbicidal activity, IPOHE (15 g/Ha): 70
Herbicidal activity, IPOHE (30 g/Ha): 90
Herbicidal activity, IPOHE (60 g/Ha): 90
Herbicidal activity, IPOHE (125 g/Ha): 100
Herbicidal activity, IPOHE (250 g/Ha): 100
Herbicidal activity, IPOHE (500 g/Ha): 100
Herbicidal activity, ORYSA (15 g/Ha): 0
Herbicidal activity, ORYSA (30 g/Ha): 0
Herbicidal activity, ORYSA (60 g/Ha): 0
Herbicidal activity, ORYSA (125 g/Ha): 10
Herbicidal activity, ORYSA (250 g/Ha): 20
Herbicidal activity, ORYSA (500 g/Ha): 40
Herbicidal activity, PANMI (15 g/Ha): 0
Herbicidal activity, PANMI (30 g/Ha): 50
Herbicidal activity, PANMI (60 g/Ha): 60
Herbicidal activity, PANMI (125 g/Ha): 80
Herbicidal activity, PANMI (250 g/Ha): 100
Herbicidal activity, PANMI (500 g/Ha): 100
Herbicidal activity, SETFA (15 g/Ha): 0
Herbicidal activity, SETFA (30 g/Ha): 70
Herbicidal activity, SETFA (60 g/Ha): 70
Herbicidal activity, SETFA (125 g/Ha): 80
Herbicidal activity, SETFA (250 g/Ha): 90
Herbicidal activity, SETFA (500 g/Ha): 90
Herbicidal activity, SIDSP (15 g/Ha): 40
Herbicidal activity, SIDSP (30 g/Ha): 80
Herbicidal activity, SIDSP (60 g/Ha): 80
Herbicidal activity, SIDSP (125 g/Ha): 90
Herbicidal activity, SIDSP (250 g/Ha): 90
Herbicidal activity, SIDSP (500 g/Ha): 100
Herbicidal activity, SORVU (15 g/Ha): 0
Herbicidal activity, SORVU (30 g/Ha): 20
Herbicidal activity, SORVU (60 g/Ha): 60
Herbicidal activity, SORVU (125 g/Ha): 80
Herbicidal activity, SORVU (250 g/Ha): 90
Herbicidal activity, SORVU (500 g/Ha): 100
Herbicidal activity, XANST (60 g/Ha): 90
Herbicidal activity, XANST (250 g/Ha): 100
Herbicidal activity, XANST (500 g/Ha): 100
Herbicidal activity, ZEAMX (15 g/Ha): 0
Herbicidal activity, ZEAMX (30 g/Ha): 20
Herbicidal activity, ZEAMX (60 g/Ha): 20
Herbicidal activity, ZEAMX (125 g/Ha): 20
Herbicidal activity, ZEAMX (250 g/Ha): 30
Herbicidal activity, ZEAMX (500 g/Ha): 70
